Calls of active or inactive are those of the source. The calls are words filed in the database; no cut-off is given here.
How the values were obtained:
HepG2 = assay: Cytotoxicity against human HepG2 cells assessed as reduction in cell viability at 50 uM after 24 hrs by MTT assay; format: cell-based; conditions: hepg2, 24 h
Plasmodium falciparum [1] = assay: Growth inhibition of schizont stage Plasmodium falciparum 3D7 infected in human erythrocytes at 10 uM after 46 hrs by ethidium bromide staining based flow cytometric analysis relative to control; format: functional; conditions: 3D7, 46 h, read-out: GI
Plasmodium falciparum [2] = assay: Induction of mitochondrial membrane potential loss in trophozoite stage of Plasmodium falciparum 3D7 infected in human erythrocytes assessed as decrease in JC1 red to JC1 green ratio at 50 uM by JC1 staining based microscopic analysis; format: functional, organism-based
Plasmodium falciparum [3] = assay: Growth inhibition of schizont stage Plasmodium falciparum 3D7 infected in human erythrocytes at 50 uM after 46 hrs by ethidium bromide staining based flow cytometric analysis relative to control; format: functional; conditions: 3D7, 46 h, read-out: GI
Plasmodium falciparum [4] = assay: Antiplasmodial activity against late trophozoite stage of Plasmodium falciparum 3D7 infected in human erythrocytes measured after 46 hrs by ethidium bromide staining based flow cytometric analysis; format: functional, organism-based; conditions: for EC50: 3D7, 46 h
[5] = system: Plasmodium falciparum 3D7; assay: Inhibition of P-type cation ATPase ATP4 in trophozoite stage of Plasmodium falciparum 3D7 infected in human erythrocytes assessed as increase in Na+/- levels at 50 uM by sodium green dye based microscopic analysis; format: cell-based
[6] = system: Plasmodium falciparum 3D7; assay: (§1) Inhibition of P-type cation ATPase ATP4 in trophozoite stage of Plasmodium falciparum 3D7 infected in human erythrocytes assessed as swelling of intraerythrocytic parasites by measuring diameter of parasitized RBC at 50 uM after 4 hrs by sodium green dye based microscopic analysis (reference value: 5.03 micrometer); format: cell-based
Plasmodium falciparum [7] = assay: Antiplasmodial activity against late trophozoite stage of Plasmodium falciparum 3D7 infected in human erythrocytes measured after 46 hrs in presence of graphene oxide 2 by ethidium bromide staining based flow cytometric analysis; format: functional, organism-based; conditions: 3D7, 46 h
[8] = system: Plasmodium falciparum 3D7; assay: as §1, with “parasite” for “parasitized RBC”, “3.5” for “5.03”; format: cell-based
Plasmodium falciparum [9] = assay: Antiplasmodial activity against late trophozoite stage of Plasmodium falciparum 3D7 infected in human erythrocytes measured after 46 hrs in presence of graphene oxide 1 by ethidium bromide staining based flow cytometric analysis; format: functional, organism-based; conditions: 3D7, 46 h
Plasmodium falciparum [10] = assay: Ratio of EC50 for antiplasmodial activity against late trophozoite stage of Plasmodium falciparum 3D7 infected in human erythrocytes to EC50 for antiplasmodial activity against late trophozoite stage of Plasmodium falciparum 3D7 infected in human erythrocytes in presence of graphene oxide 2; format: functional

EC50 (Plasmodium falciparum [4])	EC50 (Plasmodium falciparum [7])	EC50 (Plasmodium falciparum [9])	Structure (SMILES)	Activity (HepG2)	inhibition of growth at 10 µM (Plasmodium falciparum [1])	Activity (Plasmodium falciparum [2])	inhibition of growth at 50 µM (Plasmodium falciparum [3])	Activity (Plasmodium falciparum [4])	inhibition [5]	Activity [6]	Activity [8]	Ratio EC50 (Plasmodium falciparum [10])
			C/C=C/c1ccc(O)c(OC)c1	Non-Toxic								
			C=CCc1ccc(O)c(OC)c1 [EUGENOL]	Non-Toxic								
22 µM			C=CCc1cc2c(c(OC)c1)OCN(Cc1ccco1)C2	Non-Toxic	4.7%	Active	58.5%	Dose-dependent effect	Active			
17.5 µM	0.49 µM	7.19 µM	C/C=C/c1cc2c(c(OC)c1)OCN(Cc1ccco1)C2	Non-Toxic	14.9%	Active	73%	Dose-dependent effect	Active	6.3 µm	4.4 µm	36
